How the values were obtained:
[1] = biological target: T1, IKZF2 (Homo sapiens, UniProt Q96SW2+Q9UKS7); assay: Western-blot assay, substrate protein degradation in hPBMCs: IKZF2; format: cell-based; conditions: for substrate protein remaining % IKZF2: 24 hours of compound treatment, 50 nM and 500 nM; for IKZF2 substrate protein remaining %: compounds at 50 nM and 500 nM, 24 hours
T1 construct: effects of the compounds of the present disclosure on the expression of target proteins in cells; endogenous in cells; host or cells: human PBMCs (hPBMCs)
T1 sequence (Q9UKS7 whole entry): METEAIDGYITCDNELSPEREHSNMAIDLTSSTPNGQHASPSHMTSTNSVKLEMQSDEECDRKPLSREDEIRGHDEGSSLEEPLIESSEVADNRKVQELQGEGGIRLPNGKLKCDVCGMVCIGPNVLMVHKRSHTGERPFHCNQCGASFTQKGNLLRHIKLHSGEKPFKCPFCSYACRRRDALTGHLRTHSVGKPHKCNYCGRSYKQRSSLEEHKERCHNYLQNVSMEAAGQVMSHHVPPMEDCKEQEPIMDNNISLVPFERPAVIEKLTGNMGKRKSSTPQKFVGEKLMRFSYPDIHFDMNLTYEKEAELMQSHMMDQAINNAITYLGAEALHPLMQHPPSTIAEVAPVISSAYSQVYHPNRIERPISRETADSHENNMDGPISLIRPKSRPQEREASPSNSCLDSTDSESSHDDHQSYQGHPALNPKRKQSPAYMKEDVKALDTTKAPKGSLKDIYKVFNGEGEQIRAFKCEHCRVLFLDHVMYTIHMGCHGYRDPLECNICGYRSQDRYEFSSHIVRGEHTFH
T1 sequence (Q96SW2 whole entry): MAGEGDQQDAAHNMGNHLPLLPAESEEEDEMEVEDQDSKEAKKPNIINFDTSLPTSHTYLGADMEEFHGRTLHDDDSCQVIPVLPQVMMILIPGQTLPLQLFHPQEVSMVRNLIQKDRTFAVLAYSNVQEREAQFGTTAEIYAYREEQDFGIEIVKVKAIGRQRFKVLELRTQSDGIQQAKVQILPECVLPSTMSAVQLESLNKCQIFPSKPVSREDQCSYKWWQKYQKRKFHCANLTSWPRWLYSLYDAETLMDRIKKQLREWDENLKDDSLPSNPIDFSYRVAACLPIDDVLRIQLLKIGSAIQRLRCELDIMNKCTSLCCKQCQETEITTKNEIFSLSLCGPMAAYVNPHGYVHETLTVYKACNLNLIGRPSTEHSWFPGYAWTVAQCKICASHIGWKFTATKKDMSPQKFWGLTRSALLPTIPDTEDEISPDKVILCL
T1 sequence (Q16531 whole entry partner): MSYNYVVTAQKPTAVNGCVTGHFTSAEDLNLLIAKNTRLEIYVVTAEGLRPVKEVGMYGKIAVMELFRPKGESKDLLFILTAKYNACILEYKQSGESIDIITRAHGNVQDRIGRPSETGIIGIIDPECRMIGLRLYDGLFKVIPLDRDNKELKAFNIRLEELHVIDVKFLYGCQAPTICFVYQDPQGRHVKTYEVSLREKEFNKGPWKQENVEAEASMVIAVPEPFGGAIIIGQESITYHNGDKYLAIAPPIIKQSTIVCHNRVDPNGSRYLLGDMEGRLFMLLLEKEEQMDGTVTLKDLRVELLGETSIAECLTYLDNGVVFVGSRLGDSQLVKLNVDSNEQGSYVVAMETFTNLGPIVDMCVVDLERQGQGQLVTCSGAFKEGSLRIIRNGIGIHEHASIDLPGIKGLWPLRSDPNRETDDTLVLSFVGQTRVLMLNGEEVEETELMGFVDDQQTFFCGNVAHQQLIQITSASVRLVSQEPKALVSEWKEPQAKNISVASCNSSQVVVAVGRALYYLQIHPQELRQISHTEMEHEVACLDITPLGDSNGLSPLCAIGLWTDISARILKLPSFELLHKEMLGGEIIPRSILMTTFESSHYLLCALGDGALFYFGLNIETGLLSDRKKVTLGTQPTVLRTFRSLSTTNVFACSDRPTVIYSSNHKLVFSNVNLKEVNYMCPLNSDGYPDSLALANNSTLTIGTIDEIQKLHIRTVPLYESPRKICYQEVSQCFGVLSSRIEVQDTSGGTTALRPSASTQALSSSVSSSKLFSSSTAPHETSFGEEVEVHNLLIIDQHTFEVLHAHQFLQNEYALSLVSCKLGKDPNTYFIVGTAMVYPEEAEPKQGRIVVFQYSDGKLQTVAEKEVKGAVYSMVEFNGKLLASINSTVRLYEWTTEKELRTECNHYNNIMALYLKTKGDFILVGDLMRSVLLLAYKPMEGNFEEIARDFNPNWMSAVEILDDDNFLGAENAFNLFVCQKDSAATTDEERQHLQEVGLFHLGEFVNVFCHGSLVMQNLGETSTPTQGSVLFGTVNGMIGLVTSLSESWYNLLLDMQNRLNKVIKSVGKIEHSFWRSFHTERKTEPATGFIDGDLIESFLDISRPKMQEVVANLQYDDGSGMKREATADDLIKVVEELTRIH

[2] = biological target: T2, IKZF3 (Homo sapiens, UniProt Q96SW2+Q9UKT9); assay: Western-blot assay, substrate protein degradation in hPBMCs: IKZF3; format: cell-based; conditions: for substrate protein remaining % IKZF3: 24 hours of compound treatment, 50 nM and 500 nM; for IKZF3 substrate protein remaining %: compounds at 50 nM and 500 nM, 24 hours
T2 construct: effects of the compounds of the present disclosure on the expression of target proteins in cells; endogenous in cells; host or cells: human PBMCs (hPBMCs)

[3] = biological target: T3, human Cereblon WT GST-tagged protein (Homo sapiens, UniProt Q96SW2); assay: CRBN-binding affinity, CEREBLON BINDING kit (HTRF); conditions: for IC50: 3 hours at room temperature; for inhibition at 0.5 µM: read-out: Inhibition Rate at 0.5 µM (%); for inhibition at 2 µM: read-out: Inhibition Rate at 2 µM (%)
T3 construct: purchased CISBIO 64BDCRBNPEH
T3 sequence (Q96SW2 whole entry): as the sequence (Q96SW2 whole entry) above
From the text: The CEREBLON BINDING kits (specification: 10,000 tests; product number: Catalog # 64BDCRBNPEH; CISBIO company) was used to determine the CRBN binding ability of the compounds to be tested through a HTRF method (homogeneous time-resolved fluorescence). The specific methods are as follows: • 1. […] Specifically, diluent #9 (1X) solution was used as the diluent, and multiple concentration gradients were set. […] Into the 96-well plate, the diluted test compounds and corresponding detection reagents were added, resulting in final test compound concentrations of 2 µM and 0.5 µM, respectively. […] Then, 2.5 µL of human Cereblon WT GST-tagged protein solution was added to each well. Finally, 5 µL of the thoroughly mixed Thalidomide-Re reagent and GST Eu antibody working solution were added to each of the aforementioned wells. […] The blank control wells were sequentially added with 2.5 µL of diluent #9 (1X) solution, 2.5 µL of binding buffer, and 5 µL of thoroughly mixed Thalidomide-Re reagent and GST Eu antibody working solution. • 4. […] OD 620 nm control is the absorbance value of the blank control well at an emission wavelength of 620 nm. […] OD 620 nm Std0 is the absorbance value of the solvent control well at an emission wavelength of 620 nm.

[4] = biological target: T4, WEE1 (Homo sapiens, UniProt P30291+Q96SW2); assay: Western-blot assay, substrate protein degradation in hPBMCs: WEE1; format: cell-based; conditions: for substrate protein remaining % WEE1: 24 hours of compound treatment, 50 nM and 500 nM; for WEE1 substrate protein remaining %: compounds at 50 nM and 500 nM, 24 hours
T4 construct: effects of the compounds of the present disclosure on the expression of target proteins in cells; endogenous in cells; host or cells: human PBMCs (hPBMCs)
T4 sequence (P30291 whole entry): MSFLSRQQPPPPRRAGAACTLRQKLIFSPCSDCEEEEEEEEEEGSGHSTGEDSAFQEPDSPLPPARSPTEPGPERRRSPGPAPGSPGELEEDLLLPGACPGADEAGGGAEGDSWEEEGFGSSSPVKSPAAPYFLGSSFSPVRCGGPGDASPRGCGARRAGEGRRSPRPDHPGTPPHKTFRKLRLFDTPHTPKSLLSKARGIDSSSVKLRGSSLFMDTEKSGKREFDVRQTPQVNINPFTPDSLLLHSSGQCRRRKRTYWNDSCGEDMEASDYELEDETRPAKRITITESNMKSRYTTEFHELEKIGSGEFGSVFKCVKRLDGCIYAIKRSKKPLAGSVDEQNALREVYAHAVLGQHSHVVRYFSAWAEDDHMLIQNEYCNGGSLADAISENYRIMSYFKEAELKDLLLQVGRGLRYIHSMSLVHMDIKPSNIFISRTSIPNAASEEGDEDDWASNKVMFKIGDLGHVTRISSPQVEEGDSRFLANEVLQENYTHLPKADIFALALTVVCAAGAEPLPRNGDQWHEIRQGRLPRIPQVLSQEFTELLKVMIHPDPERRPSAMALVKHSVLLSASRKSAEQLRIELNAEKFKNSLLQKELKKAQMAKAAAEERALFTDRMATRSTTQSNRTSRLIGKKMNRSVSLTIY
T4 sequence (Q96SW2 whole entry): as the sequence (Q96SW2 whole entry) above
T4 sequence (Q16531 whole entry partner): as the sequence (Q16531 whole entry partner) above

[5] = biological target: T5, GSPT1 (Homo sapiens, UniProt P15170+Q96SW2); assay: Western-blot assay, substrate protein degradation in hPBMCs: GSPT1; format: cell-based; conditions: for substrate protein remaining % GSPT1: 24 hours of compound treatment, 50 nM and 500 nM; for GSPT1 substrate protein remaining %: compounds at 50 nM and 500 nM, 24 hours
T5 construct: effects of the compounds of the present disclosure on the expression of target proteins in cells; endogenous in cells; host or cells: human PBMCs (hPBMCs)
T5 sequence (P15170 whole entry): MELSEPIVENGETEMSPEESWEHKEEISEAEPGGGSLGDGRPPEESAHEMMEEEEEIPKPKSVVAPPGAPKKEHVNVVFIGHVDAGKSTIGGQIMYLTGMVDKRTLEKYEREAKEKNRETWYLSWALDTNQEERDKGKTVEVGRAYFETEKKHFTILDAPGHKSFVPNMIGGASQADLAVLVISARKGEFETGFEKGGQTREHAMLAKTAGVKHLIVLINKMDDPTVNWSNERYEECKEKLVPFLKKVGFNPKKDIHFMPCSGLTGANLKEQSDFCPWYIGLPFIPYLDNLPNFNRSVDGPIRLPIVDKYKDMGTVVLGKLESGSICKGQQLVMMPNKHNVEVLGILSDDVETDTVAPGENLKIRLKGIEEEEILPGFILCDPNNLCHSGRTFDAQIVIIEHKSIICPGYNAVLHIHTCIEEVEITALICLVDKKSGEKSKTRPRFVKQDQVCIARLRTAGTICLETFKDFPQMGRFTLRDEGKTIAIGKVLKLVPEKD
T5 sequence (Q96SW2 whole entry): as the sequence (Q96SW2 whole entry) above
T5 sequence (Q16531 whole entry partner): as the sequence (Q16531 whole entry partner) above

[6] = biological target: T6, CK1α (Homo sapiens, UniProt P48729+Q96SW2); assay: Western-blot assay, substrate protein degradation in hPBMCs: CK1α; format: cell-based; conditions: for substrate protein remaining % CK1α: 24 hours of compound treatment, 50 nM and 500 nM; for CK1α substrate protein remaining %: compounds at 50 nM and 500 nM, 24 hours
T6 construct: effects of the compounds of the present disclosure on the expression of target proteins in cells; endogenous in cells; host or cells: human PBMCs (hPBMCs)
T6 sequence (P48729 whole entry): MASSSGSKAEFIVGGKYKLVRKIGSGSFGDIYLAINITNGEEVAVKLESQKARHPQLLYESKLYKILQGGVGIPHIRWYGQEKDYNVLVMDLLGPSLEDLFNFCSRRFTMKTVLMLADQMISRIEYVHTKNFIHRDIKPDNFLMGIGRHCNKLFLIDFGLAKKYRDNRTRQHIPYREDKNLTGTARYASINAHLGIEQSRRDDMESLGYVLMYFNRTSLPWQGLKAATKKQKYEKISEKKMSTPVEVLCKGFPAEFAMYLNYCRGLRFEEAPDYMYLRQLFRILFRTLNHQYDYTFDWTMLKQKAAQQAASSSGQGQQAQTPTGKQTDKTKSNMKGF
T6 sequence (Q96SW2 whole entry): as the sequence (Q96SW2 whole entry) above
T6 sequence (Q16531 whole entry partner): as the sequence (Q16531 whole entry partner) above

[7] = biological target: T7, IKZF1 (Homo sapiens, UniProt Q13422+Q96SW2); assay: Western-blot assay, substrate protein degradation in hPBMCs: IKZF1; format: cell-based; conditions: for substrate protein remaining % IKZF1: 24 hours of compound treatment, 50 nM and 500 nM; for IKZF1 substrate protein remaining %: compounds at 50 nM and 500 nM, 24 hours
T7 construct: effects of the compounds of the present disclosure on the expression of target proteins in cells; endogenous in cells; host or cells: human PBMCs (hPBMCs)
T7 sequence (Q13422 whole entry): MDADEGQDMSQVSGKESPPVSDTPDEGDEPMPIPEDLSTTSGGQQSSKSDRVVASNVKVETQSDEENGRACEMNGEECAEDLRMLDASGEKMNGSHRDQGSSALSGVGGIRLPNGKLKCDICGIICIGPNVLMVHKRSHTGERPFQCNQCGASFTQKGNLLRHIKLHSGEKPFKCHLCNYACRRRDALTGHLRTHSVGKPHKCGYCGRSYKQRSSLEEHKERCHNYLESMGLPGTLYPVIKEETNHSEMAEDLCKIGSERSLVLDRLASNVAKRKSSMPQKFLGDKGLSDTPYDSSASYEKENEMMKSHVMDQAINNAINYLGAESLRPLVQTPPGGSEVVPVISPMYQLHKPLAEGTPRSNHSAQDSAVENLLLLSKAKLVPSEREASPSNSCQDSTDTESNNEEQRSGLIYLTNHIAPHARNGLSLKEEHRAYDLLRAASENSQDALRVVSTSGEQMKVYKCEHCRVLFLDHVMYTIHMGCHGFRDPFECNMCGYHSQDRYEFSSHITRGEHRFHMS
T7 sequence (Q96SW2 whole entry): as the sequence (Q96SW2 whole entry) above
T7 sequence (Q16531 whole entry partner): as the sequence (Q16531 whole entry partner) above

[8] = system: MV-4-11; assay: Cell viability assay (CellTiter-Meiluncell Luminescent), tumor cell proliferation, MV-4-11; conditions: Homo sapiens, MV4-11, 96 h; for inhibition at 0.01 µM: read-out: Inhibition Rate at 10 nM (%); for inhibition at 0.5 µM: read-out: Inhibition Rate at 500 nM (%)
[9] = system: H292; assay: Cell viability assay (CellTiter-Meiluncell Luminescent), tumor cell proliferation, H292; conditions: Homo sapiens, NCI-H292, 96 h; for inhibition at 0.01 µM: read-out: Inhibition Rate at 10 nM (%); for inhibition at 0.5 µM: read-out: Inhibition Rate at 500 nM (%)
[10] = system: Jurkat; assay: Cell viability assay (CellTiter-Meiluncell Luminescent), tumor cell proliferation, Jurkat; conditions: Homo sapiens, 96 h, read-out: inhibitory activity (IC50, nM) against tumor cells proliferation, Jurkat
[11] = system: MM.1S; assay: Cell viability assay (CellTiter-Meiluncell Luminescent), tumor cell proliferation, MM.1S; conditions: Homo sapiens, MM1.S, 96 h, read-out: inhibitory activity (IC50, nM) against tumor cells proliferation, MM.1S
Protocol: The tumor cells used herein were cultured in a cell culture medium listed in table 2 at 37°C in an incubator with 5% CO2. Prior to experimentation, all cell lines used were correctly identified by STR profiling, and tested negative for mycoplasma contamination using a mycoplasma detection kit through routine screenings.
On the following day, the test compounds of the present disclosure were subjected to serial dilution. […] Subsequently, 0.5 µL of the test compound dilution was transferred into the 96-well plate containing the cells, with each well containing 100 µL of cell culture medium. […] Into the 96-well plate, the diluted test compounds and corresponding detection reagents were added, resulting in final test compound concentrations of 500 nM and 10 nM, respectively. The experimental procedure is described below using the diluted 2 µM test compound as an example.
After the cells were treated with the compounds of the present disclosure for a specified period, the cell viability assay reagent was added to the culture medium according to the kit's instructions to determine cell viability. […] All controls were treated using the same procedure as the compounds of the present disclosure. The growth inhibition curves for the compounds of the present disclosure were plotted using Prism GraphPad software, and the IC50 values were calculated therefrom.

| Structure (SMILES) | substrate protein remaining % IKZF2 [1] | substrate protein remaining % IKZF3 [2] | IC50 [3] [nM] | substrate protein remaining % WEE1 [4] | substrate protein remaining % GSPT1 [5] | substrate protein remaining % CK1α [6] | substrate protein remaining % IKZF1 [7] | inhibition at 0.01 µM [8] [%] | inhibition at 0.5 µM [8] [%] | inhibition at 0.5 µM [3] [%] | inhibition at 2 µM [3] [%] | IC50 [10] [nM] | IC50 [11] [nM] | other results |
| --- | --- | --- | --- | --- | --- | --- | --- | --- | --- | --- | --- | --- | --- | --- |
| O=C1CCN(N2Cc3cc(CN4CC=C(c5c[nH]c6cc(F)ccc56)CC4)ccc3C2=O)C(=O)N1 [GT-07574, 1-(5-((4-(6-fluoro-1H-indol-3-yl)-3,6-dihydropyridin-1(2H)-yl)methyl)-1-oxoisoindolin-2-yl)dihydropyrimidine-2,4(1H,3H)-dione] | A (0% ≤ substrate protein remaining % ≤ 80%) | B (80%< substrate protein remaining %≤ 100%) | 1500 to 1900 | A (0% ≤ substrate protein remaining % ≤ 80%) | A (0% ≤ substrate protein remaining % ≤ 80%) | A (0% ≤ substrate protein remaining % ≤ 80%) | B (80%< substrate protein remaining %≤ 100%) | – | – | – | – | – | – | – |
| O=C1CCN(N2Cc3cc(CN4CCN(c5cccs5)CC4)ccc3C2=O)C(=O)N1 [GT-05073, 1-(1-oxo-5-((4-(thiophen-2-yl)piperazin-1-yl)methyl)isoindolin-2-yl)dihydropyrimidine-2,4(1H,3H)-dione] | – | – | 1000 to 1500 | – | – | – | – | – | – | – | – | – | – | IKZF2 substrate protein remaining % [1]: B ("B" is defined as 80%< substrate protein remaining %≤ 100%); IKZF3 substrate protein remaining % [2]: A ("A" is defined as 0% ≤ substrate protein remaining % ≤ 80%); WEE1 substrate protein remaining % [4]: B ("B" is defined as 80%< substrate protein remaining %≤ 100%); GSPT1 substrate protein remaining % [5]: B ("B" is defined as 80%< substrate protein remaining %≤ 100%); CK1α substrate protein remaining % [6]: B ("B" is defined as 80%< substrate protein remaining %≤ 100%); IKZF1 substrate protein remaining % [7]: B ("B" is defined as 80%< substrate protein remaining %≤ 100%) |
| Cc1nc(C2=CCN(Cc3ccc4c(c3)CN(N3CCC(=O)NC3=O)C4=O)CC2)c2c3c(sc2n1)CCCC3 [GT-08177, 1-(5-((4-(2-methyl-5,6,7,8-tetrahydrobenzo[4,5]thieno[2,3-d]pyrimidin-4-yl)-3,6-dihydropyridin-1(2H)-yl)methyl)-1-oxoisoindolin-2-yl)dihydropyrimidine-2,4(1H,3H)-dione] | – | – | – | – | – | – | – | 40 to 60 | 30 to 40 | 20 to 30 | 53 to 60 | – | – | inhibition at 0.01 µM [9]: 10 to 15%; inhibition at 0.5 µM [9]: 10 to 15% |
| O=C1CCN(N2Cc3cc(CN4CC=C(c5ccnc(Cl)c5Cl)CC4)ccc3C2=O)C(=O)N1 [GT-07432, 1-(5-((2',3'-dichloro-3,6-dihydro-[4,4'-bipyridin]-1(2H)-yl)methyl)-1-oxoisoindolin-2-yl)dihydropyrimidine-2,4(1H,3H)-dione] | A (0% ≤ substrate protein remaining % ≤ 80%) | A (0% ≤ substrate protein remaining % ≤ 80%) | – | A (0% ≤ substrate protein remaining % ≤ 80%) | A (0% ≤ substrate protein remaining % ≤ 80%) | A (0% ≤ substrate protein remaining % ≤ 80%) | A (0% ≤ substrate protein remaining % ≤ 80%) | – | – | – | – | 500 to 1000 | 300 to 500 | – |
| O=C1CCN(N2Cc3cc(CN4CC=C(c5cccc6c(F)cccc56)CC4)ccc3C2=O)C(=O)N1 [GT-07590, 1-(5-((4-(5-fluoronaphthalen-1-yl)-3,6-dihydropyridin-1(2H)-yl)methyl)-1-oxoisoindolin-2-yl)dihydropyrimidine-2,4(1H,3H)-dione] | A (0% ≤ substrate protein remaining % ≤ 80%) | A (0% ≤ substrate protein remaining % ≤ 80%) | – | A (0% ≤ substrate protein remaining % ≤ 80%) | A (0% ≤ substrate protein remaining % ≤ 80%) | B (80%< substrate protein remaining %≤ 100%) | A (0% ≤ substrate protein remaining % ≤ 80%) | – | – | – | – | 50 to 100 | 10 to 50 | – |
| Cc1nc(C2CCN(Cc3ccc4c(c3)CN(N3CCC(=O)NC3=O)C4=O)CC2)c2c(-c3ccccc3)csc2n1 [GT-08087, 1-(5-((4-(2-methyl-5-phenylthieno[2,3-d]pyrimidin-4-yl)piperidin-1-yl)methyl)-1-oxoisoindolin-2-yl)dihydropyrimidine-2,4(1H,3H)-dione] | – | – | – | – | – | – | – | 30 to 40 | 30 to 40 | 20 to 30 | 60 to 80 | – | – | – |
| Cc1nc(C2=CCN(Cc3ccc4c(c3)CN(N3CCC(=O)NC3=O)C4=O)CC2)c2c(-c3ccccc3)csc2n1 [GT-08176, 1-(5-((4-(2-methyl-5-phenylthieno[2,3-d]pyrimidin-4-yl)-3,6-dihydropyridin-1(2H)-yl)methyl)-1-oxoisoindolin-2-yl)dihydropyrimidine-2,4(1H,3H)-dione] | – | – | – | – | – | – | – | 60 to 80 | 30 to 40 | 30 to 40 | 60 to 80 | – | – | inhibition at 0.01 µM [9]: 15 to 20%; inhibition at 0.5 µM [9]: 20 to 40% |
| Cn1cc(C2CCN(Cc3ccc4c(c3)CN(N3CCC(=O)NC3=O)C4=O)CC2)c2ccc(F)cc21 [GT-07575, 1-(5-((4-(6-fluoro-1-methyl-1H-indol-3-yl)piperidin-1-yl)methyl)-1-oxoisoindolin-2-yl)dihydropyrimidine-2,4(1H,3H)-dione] | A (0% ≤ substrate protein remaining % ≤ 80%) | A (0% ≤ substrate protein remaining % ≤ 80%) | – | A (0% ≤ substrate protein remaining % ≤ 80%) | A (0% ≤ substrate protein remaining % ≤ 80%) | A (0% ≤ substrate protein remaining % ≤ 80%) | A (0% ≤ substrate protein remaining % ≤ 80%) | – | – | – | – | 100 to 300 | 100 to 300 | – |
| O=C1CCN(N2Cc3cc(CN4CC5CCC4CN5C(c4ccccc4)c4ccccc4)ccc3C2=O)C(=O)N1 (stereo not shown) [GT-06450, 1-(5-((5-benzhydryl-2,5-diazabicyclo[2.2.2]octan-2-yl)methyl)-1-oxoisoindolin-2-yl)dihydropyrimidine-2,4(1H,3H)-dione] | – | – | 1500 to 1900 | – | – | – | – | – | – | – | – | – | – | IKZF2 substrate protein remaining % [1]: A ("A" is defined as 0% ≤ substrate protein remaining % ≤ 80%); IKZF3 substrate protein remaining % [2]: A ("A" is defined as 0% ≤ substrate protein remaining % ≤ 80%); WEE1 substrate protein remaining % [4]: A ("A" is defined as 0% ≤ substrate protein remaining % ≤ 80%); GSPT1 substrate protein remaining % [5]: A ("A" is defined as 0% ≤ substrate protein remaining % ≤ 80%); CK1α substrate protein remaining % [6]: B ("B" is defined as 80%< substrate protein remaining %≤ 100%); IKZF1 substrate protein remaining % [7]: B ("B" is defined as 80%< substrate protein remaining %≤ 100%) |
